According to paper PMC7044277 (Nature Communications, 2020):
Where “and” joins values, the source holds several entries; their conditions need not be identical. Equal values may be shown once.

Legend:
Format in all cases: cell-based
320 non-olfactory GPCRs [1] = biological target: 320 non-olfactory GPCRs (Homo sapiens, UniProt P08172)
320 non-olfactory GPCRs [2] = biological target: T1, 320 non-olfactory GPCRs (Homo sapiens, UniProt P48960)
T1 construct: expressed in transfected cells; host or cells: HTLA cells
T1 sequence (P48960 21-835): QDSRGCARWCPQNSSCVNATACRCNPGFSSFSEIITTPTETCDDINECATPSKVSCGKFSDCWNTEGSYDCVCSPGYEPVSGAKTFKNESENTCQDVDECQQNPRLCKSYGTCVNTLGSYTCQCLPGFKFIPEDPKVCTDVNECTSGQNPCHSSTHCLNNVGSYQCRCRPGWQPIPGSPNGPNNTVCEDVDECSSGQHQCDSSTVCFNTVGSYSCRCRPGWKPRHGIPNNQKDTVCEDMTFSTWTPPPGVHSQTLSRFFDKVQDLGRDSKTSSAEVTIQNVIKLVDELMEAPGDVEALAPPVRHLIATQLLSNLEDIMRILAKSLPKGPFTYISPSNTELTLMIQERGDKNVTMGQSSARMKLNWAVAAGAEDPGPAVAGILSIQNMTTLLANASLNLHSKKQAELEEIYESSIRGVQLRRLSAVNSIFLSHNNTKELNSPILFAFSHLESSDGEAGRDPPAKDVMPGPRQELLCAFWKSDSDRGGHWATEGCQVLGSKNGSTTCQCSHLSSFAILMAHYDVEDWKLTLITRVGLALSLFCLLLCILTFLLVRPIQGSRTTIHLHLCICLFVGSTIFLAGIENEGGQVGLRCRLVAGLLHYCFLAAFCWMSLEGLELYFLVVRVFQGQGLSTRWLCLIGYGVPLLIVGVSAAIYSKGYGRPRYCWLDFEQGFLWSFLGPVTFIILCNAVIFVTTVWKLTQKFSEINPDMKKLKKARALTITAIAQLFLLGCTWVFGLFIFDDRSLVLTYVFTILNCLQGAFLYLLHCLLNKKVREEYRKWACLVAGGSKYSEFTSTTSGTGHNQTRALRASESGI

320 non-olfactory GPCRs [3] = biological target: T2, 320 non-olfactory GPCRs (Homo sapiens, UniProt Q5T601)
T2 construct: expressed in transfected cells; host or cells: HTLA cells
T2 sequence (Q5T601 20-910): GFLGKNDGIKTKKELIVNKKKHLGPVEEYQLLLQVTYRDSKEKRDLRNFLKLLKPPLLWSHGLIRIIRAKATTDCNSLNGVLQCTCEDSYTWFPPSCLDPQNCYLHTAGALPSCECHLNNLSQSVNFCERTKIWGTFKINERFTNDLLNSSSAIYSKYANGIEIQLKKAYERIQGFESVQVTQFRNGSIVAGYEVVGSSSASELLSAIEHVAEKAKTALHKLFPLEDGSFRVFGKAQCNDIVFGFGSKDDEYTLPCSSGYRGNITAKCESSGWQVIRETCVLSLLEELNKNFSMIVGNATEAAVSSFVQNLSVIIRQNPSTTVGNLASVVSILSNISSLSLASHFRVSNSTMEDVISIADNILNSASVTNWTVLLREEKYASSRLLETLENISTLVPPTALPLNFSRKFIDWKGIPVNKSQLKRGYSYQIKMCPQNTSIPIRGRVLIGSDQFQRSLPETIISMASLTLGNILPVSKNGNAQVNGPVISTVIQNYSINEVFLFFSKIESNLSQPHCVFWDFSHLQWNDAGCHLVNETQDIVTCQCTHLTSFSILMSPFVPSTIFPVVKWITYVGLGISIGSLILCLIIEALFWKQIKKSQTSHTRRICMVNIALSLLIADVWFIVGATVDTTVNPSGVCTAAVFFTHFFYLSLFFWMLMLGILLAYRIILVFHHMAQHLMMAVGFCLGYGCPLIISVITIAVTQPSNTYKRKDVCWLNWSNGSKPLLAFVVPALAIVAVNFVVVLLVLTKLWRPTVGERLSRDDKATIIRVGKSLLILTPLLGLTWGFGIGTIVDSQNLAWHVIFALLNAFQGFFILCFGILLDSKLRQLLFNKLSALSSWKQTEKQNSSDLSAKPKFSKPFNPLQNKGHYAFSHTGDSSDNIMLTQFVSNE

320 non-olfactory GPCRs [4] = biological target: T3, 320 non-olfactory GPCRs (Homo sapiens, UniProt Q86SQ4)
T3 construct: expressed in transfected cells; host or cells: HTLA cells
T3 sequence (Q86SQ4 38-1221): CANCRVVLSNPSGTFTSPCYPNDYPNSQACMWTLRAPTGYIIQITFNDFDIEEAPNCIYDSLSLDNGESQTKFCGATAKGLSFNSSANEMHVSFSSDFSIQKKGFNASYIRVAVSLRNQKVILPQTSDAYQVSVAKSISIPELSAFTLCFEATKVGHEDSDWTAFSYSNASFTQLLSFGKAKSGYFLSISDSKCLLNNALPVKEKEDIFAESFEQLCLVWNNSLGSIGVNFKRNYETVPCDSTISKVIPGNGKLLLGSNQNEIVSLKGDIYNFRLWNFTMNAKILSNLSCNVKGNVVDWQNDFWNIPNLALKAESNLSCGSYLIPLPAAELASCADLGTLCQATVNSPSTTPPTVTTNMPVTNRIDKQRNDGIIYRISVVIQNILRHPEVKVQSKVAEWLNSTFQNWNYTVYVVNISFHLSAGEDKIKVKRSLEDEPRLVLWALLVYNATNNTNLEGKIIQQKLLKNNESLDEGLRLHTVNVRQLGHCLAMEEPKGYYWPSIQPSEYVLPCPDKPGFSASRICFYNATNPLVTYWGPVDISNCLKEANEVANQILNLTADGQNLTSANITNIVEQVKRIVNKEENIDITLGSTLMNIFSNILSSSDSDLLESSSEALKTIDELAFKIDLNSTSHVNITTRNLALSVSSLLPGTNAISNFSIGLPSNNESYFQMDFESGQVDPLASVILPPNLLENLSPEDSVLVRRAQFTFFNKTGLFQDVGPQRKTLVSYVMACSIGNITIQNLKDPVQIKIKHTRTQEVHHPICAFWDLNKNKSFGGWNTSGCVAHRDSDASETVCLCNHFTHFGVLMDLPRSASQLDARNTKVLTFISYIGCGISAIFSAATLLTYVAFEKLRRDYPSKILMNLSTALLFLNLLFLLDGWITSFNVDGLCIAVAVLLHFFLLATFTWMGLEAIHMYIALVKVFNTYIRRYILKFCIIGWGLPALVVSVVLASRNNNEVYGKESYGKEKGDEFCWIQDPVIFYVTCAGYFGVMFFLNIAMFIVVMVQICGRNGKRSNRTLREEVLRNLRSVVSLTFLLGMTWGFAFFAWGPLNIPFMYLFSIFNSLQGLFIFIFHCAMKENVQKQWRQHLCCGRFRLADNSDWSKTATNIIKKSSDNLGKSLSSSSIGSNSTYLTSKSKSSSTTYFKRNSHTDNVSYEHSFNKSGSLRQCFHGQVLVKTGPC
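Further: compound tested at 1 µM final concentration.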

Chain of 320 non-olfactory GPCRs (Homo sapiens, UniProt P08172) (P08172 whole entry): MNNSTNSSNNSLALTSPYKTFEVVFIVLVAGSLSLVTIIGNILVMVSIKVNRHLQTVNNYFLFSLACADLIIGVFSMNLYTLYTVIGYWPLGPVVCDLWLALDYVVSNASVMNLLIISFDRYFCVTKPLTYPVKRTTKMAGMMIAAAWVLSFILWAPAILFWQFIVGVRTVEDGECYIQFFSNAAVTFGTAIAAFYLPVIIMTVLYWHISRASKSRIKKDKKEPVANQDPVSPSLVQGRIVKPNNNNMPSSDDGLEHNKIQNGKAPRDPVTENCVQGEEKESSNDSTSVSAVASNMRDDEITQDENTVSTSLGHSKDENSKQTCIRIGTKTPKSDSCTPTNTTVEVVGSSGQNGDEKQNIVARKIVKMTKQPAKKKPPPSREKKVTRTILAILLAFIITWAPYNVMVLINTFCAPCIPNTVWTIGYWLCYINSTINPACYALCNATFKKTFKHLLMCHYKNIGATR

CCOc1cccc2cc(C(C)NCC3(O)CCCCC3)oc12 (stereo not shown) [O4LE6]
Fold of Basal (320 non-olfactory GPCRs [1]): 1.524 and 1.414 and 0.8585 and 0.8596 | Fold of Basal (320 non-olfactory GPCRs [2]): 0.9696 and 0.6986 and 0.95 and 0.7013 | Fold of Basal (320 non-olfactory GPCRs [3]): 0.7534 and 0.5781 and 0.7634 | Fold of Basal (320 non-olfactory GPCRs [4]): 0.5649 and 0.8908 and 0.7066 and 0.464
